For this test, the system named is CD2F1 mice, L1210 leukemia ip, survival T/C. Kind of test: NCI In Vivo Anticancer Drug Screen. Data for tumor model L1210 Leukemia (intraperitoneal) in CD2F1 (CDF1) mice. The settings on record: higher = longer survival. The method in brief:
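Implant tumor; dose compound or vehicle; measure endpoint in both groups; report treated divided by control.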

The mark [1] stands for this setting: endpoint: median survival time, dose: 12.5 mg/kg/injection, schedule: Q01DX009 (ip), vehicle: saline with Tween-80.
[2] abbreviates: endpoint: median survival time, dose: 25.0 mg/kg/injection, schedule: Q01DX009 (ip), vehicle: saline with Tween-80.
Where [3] appears, read: endpoint: mean survival time, dose: 100.0 mg/kg/injection, schedule: Q04DX003 (ip), vehicle: saline with Tween-80.
Setting [4] is: endpoint: mean survival time, dose: 200.0 mg/kg/injection, schedule: Q04DX003 (ip), vehicle: saline with Tween-80.
Where [5] appears, read: endpoint: mean survival time, dose: 400.0 mg/kg/injection, schedule: Q04DX003 (ip), vehicle: saline with Tween-80.
Setting [6] is: endpoint: mean survival time, dose: 100.0 mg/kg/injection, schedule: Q01DX001 (ip), vehicle: saline with Tween-80.
Where [7] appears, read: endpoint: mean survival time, dose: 200.0 mg/kg/injection, schedule: Q01DX001 (ip), vehicle: saline with Tween-80.

Each structure is given as a SMILES string. Toxic doses and inconclusive results are not listed.

On to `CC(C)c1cc(C(=O)O)c(O)c(C(C)C)c1.CC(C)c1cc(C(=O)O)c(O)c(C(C)C)c1.[Cu]`, for which the T/C by setting is: (endpoint: median survival time, dose: 6.25 mg/kg/injection, schedule: Q01DX009 (ip), vehicle: saline with Tween-80) 100 % of control; under setting [1], 96 % of control; under setting [2], 96 % of control.

On to `CN1COc2c(Cl)cc(Cl)cc2C1`, for which the T/C is 104 % of control (endpoint: mean survival time, dose: 25.0 mg/kg/injection, schedule: Q01DX009 (ip), vehicle: saline); 104 % of control (endpoint: mean survival time, dose: 50.0 mg/kg/injection, schedule: Q01DX009 (ip), vehicle: saline); 115 % of control (endpoint: mean survival time, dose: 100.0 mg/kg/injection, schedule: Q01DX009 (ip), vehicle: saline); 98 % of control under setting [3].

For `CS(=O)(=O)OCC1OC(n2ccc(NC(=O)c3ccccc3)nc2=O)CC1OS(C)(=O)=O` (stereo not drawn), the T/C (endpoint: median survival time, dose: 12.5 mg/kg/injection, schedule: Q01DX005 (ip), vehicle: saline with Tween-80) was 108 % of control; the T/C (endpoint: median survival time, dose: 25.0 mg/kg/injection, schedule: Q01DX005 (ip), vehicle: saline with Tween-80) is 100 % of control; the T/C (endpoint: median survival time, dose: 50.0 mg/kg/injection, schedule: Q01DX005 (ip), vehicle: saline with Tween-80) was 107 % of control; the T/C (endpoint: median survival time, dose: 100.0 mg/kg/injection, schedule: Q01DX005 (ip), vehicle: saline with Tween-80) is 103 % of control; the T/C (endpoint: median survival time, dose: 200.0 mg/kg/injection, schedule: Q01DX005 (ip), vehicle: saline with Tween-80) is 97 % of control.

With `Cc1ccc(C)c(NC(=O)c2ccc(Cl)cc2Cl)c1`, the T/C runs as follows: under setting [3], 98 % of control; under setting [4], 98 % of control; under setting [5], 96 % of control.

As to `O=C(O)CC(C(=O)O)C(=O)O`, the T/C reads like this: (endpoint: mean survival time, dose: 100.0 mg/kg/injection, schedule: Q04DX003 (ip), vehicle: saline) 100 % of control; (endpoint: mean survival time, dose: 200.0 mg/kg/injection, schedule: Q04DX003 (ip), vehicle: saline) 97 % of control; (endpoint: mean survival time, dose: 400.0 mg/kg/injection, schedule: Q04DX003 (ip), vehicle: saline) 94 % of control.

With `NC(=O)Cc1ccccc1[N+](=O)[O-]`, the T/C (endpoint: mean survival time, dose: 50.0 mg/kg/injection, schedule: Q01DX001 (ip), vehicle: saline with Tween-80) was 95 % of control; the T/C under setting [6] is 104 % of control; the T/C under setting [7] is 106 % of control.

`C[N+](C)(C)c1ccc(Cc2ccc([N+](C)(C)C)cc2)cc1`: the T/C is, setting by setting: (endpoint: mean survival time, dose: 6.3 micrograms/kg/injection, schedule: Q04DX002 (ip), vehicle: saline with Tween-80) 101 % of control; (endpoint: mean survival time, dose: 12.5 micrograms/kg/injection, schedule: Q04DX002 (ip), vehicle: saline with Tween-80) 108 % of control; (endpoint: mean survival time, dose: 25.0 micrograms/kg/injection, schedule: Q04DX002 (ip), vehicle: saline with Tween-80) 101 % of control.

Regarding `COc1cc(OC)c(NC(=O)Nc2cc(C)on2)cc1Cl`, the T/C (endpoint: mean survival time, dose: 12.5 mg/kg/injection, schedule: Q01DX009 (ip), vehicle: saline with Tween-80) was 98 % of control; the T/C (endpoint: mean survival time, dose: 25.0 mg/kg/injection, schedule: Q01DX009 (ip), vehicle: saline with Tween-80) was 92 % of control; the T/C (endpoint: mean survival time, dose: 50.0 mg/kg/injection, schedule: Q01DX009 (ip), vehicle: saline with Tween-80) is 95 % of control.

`Fc1cc2cc3ccccc3cc2c2ccccc12`: the T/C runs as follows: (endpoint: mean survival time, dose: 100.0 mg/kg/injection, schedule: Q04DX002 (ip), vehicle: saline with Tween-80) 101 % of control; (endpoint: mean survival time, dose: 200.0 mg/kg/injection, schedule: Q04DX002 (ip), vehicle: saline with Tween-80) 104 % of control; (endpoint: mean survival time, dose: 400.0 mg/kg/injection, schedule: Q04DX002 (ip), vehicle: saline with Tween-80) 104 % of control.

For `c1cc[c]([Sn]([NH]c2ncnc3[nH]cnc23)([NH]c2ncnc3[nH]cnc23)[c]2ccccc2)cc1`, the T/C is 102 % of control under setting [1]; 98 % of control (endpoint: median survival time, dose: 12.5 mg/kg/injection, schedule: Q01DX009 (ip), vehicle: suspension in saline); 113 % of control under setting [2]; 154 % of control (endpoint: median survival time, dose: 25.0 mg/kg/injection, schedule: Q01DX009 (ip), vehicle: saline); 100 % of control (endpoint: median survival time, dose: 25.0 mg/kg/injection, schedule: Q01DX009 (ip), vehicle: suspension in saline); 118 % of control (endpoint: median survival time, dose: 50.0 mg/kg/injection, schedule: Q01DX009 (ip), vehicle: saline with Tween-80). Besides, the T/C reads like this: (endpoint: median survival time, dose: 50.0 mg/kg/injection, schedule: Q01DX009 (ip), vehicle: suspension in saline) 102 % of control; (endpoint: median survival time, dose: 100.0 mg/kg/injection, schedule: Q01DX009 (ip), vehicle: saline with Tween-80) 112 % of control; (endpoint: median survival time, dose: 100.0 mg/kg/injection, schedule: Q01DX009 (ip), vehicle: saline) 166 % of control; (endpoint: median survival time, dose: 100.0 mg/kg/injection, schedule: Q01DX009 (ip), vehicle: suspension in saline) 102 % of control; (endpoint: median survival time, dose: 200.0 mg/kg/injection, schedule: Q01DX009 (ip), vehicle: saline with Tween-80) 86 % of control; (endpoint: median survival time, dose: 200.0 mg/kg/injection, schedule: Q01DX009 (ip), vehicle: saline) 203 % of control. Moreover, the T/C (endpoint: median survival time, dose: 200.0 mg/kg/injection, schedule: Q01DX009 (ip), vehicle: suspension in saline) was 112 % of control.

As for `CCCCCCCCCCNCCS`, the T/C is 104 % of control (endpoint: mean survival time, dose: 5.0 mg/kg/injection, schedule: Q01DX009 (ip), vehicle: saline with Tween-80) and 93 % of control (endpoint: mean survival time, dose: 20.0 mg/kg/injection, schedule: Q01DX009 (ip), vehicle: saline with Tween-80).

Turning to `CCCCCCCC/C=C/CCCCCCCCCCCCCCBr`, the T/C is 104 % of control under setting [3], 98 % of control under setting [4] and 93 % of control under setting [5].

Turning to `C=C(CC(=O)O)C(=O)O`, the T/C is 93 % of control under setting [3] and 98 % of control under setting [4].

With `Nc1ccc(OCCc2c(N)nc(N)nc2N)cc1`, the T/C is, setting by setting: (endpoint: mean survival time, dose: 100.0 mg/kg/injection, schedule: Q04DX002 (ip), vehicle: Klucel (hydroxypropylcellulose) (HPC)) 98 % of control; (endpoint: mean survival time, dose: 200.0 mg/kg/injection, schedule: Q04DX002 (ip), vehicle: Klucel (hydroxypropylcellulose) (HPC)) 102 % of control; (endpoint: mean survival time, dose: 400.0 mg/kg/injection, schedule: Q04DX002 (ip), vehicle: Klucel (hydroxypropylcellulose) (HPC)) 98 % of control.

For the compound `c1ccc2c(c1)sc1cc3c(cc12)CCCC3`, the T/C runs as follows: (endpoint: mean survival time, dose: 7.9 mg/kg/injection, schedule: Q04DX003 (ip), vehicle: other) 93 % of control; (endpoint: mean survival time, dose: 15.7 mg/kg/injection, schedule: Q04DX003 (ip), vehicle: other) 93 % of control; (endpoint: mean survival time, dose: 31.3 mg/kg/injection, schedule: Q04DX003 (ip), vehicle: other) 93 % of control; (endpoint: mean survival time, dose: 62.5 mg/kg/injection, schedule: Q04DX003 (ip), vehicle: other) 93 % of control; (endpoint: mean survival time, dose: 125.0 mg/kg/injection, schedule: Q04DX003 (ip), vehicle: other) 93 % of control.

For `CN1CCC23CC=CCC2C1Cc1ccc([N+](=O)[O-])cc13` (stereo not drawn), the T/C by setting is: (endpoint: mean survival time, dose: 6.25 mg/kg/injection, schedule: Q01DX001 (ip), vehicle: saline with Tween-80) 103 % of control; (endpoint: mean survival time, dose: 12.5 mg/kg/injection, schedule: Q01DX001 (ip), vehicle: saline with Tween-80) 105 % of control; (endpoint: mean survival time, dose: 25.0 mg/kg/injection, schedule: Q01DX001 (ip), vehicle: saline with Tween-80) 105 % of control.

Take `COC(=O)c1ccc(O)c(O)c1`: the T/C (endpoint: mean survival time, dose: 100.0 mg/kg/injection, schedule: Q01DX009 (ip), vehicle: saline with Tween-80) was 102 % of control; the T/C under setting [3] is 99 % of control; the T/C (endpoint: mean survival time, dose: 200.0 mg/kg/injection, schedule: Q01DX009 (ip), vehicle: saline with Tween-80) was 101 % of control; the T/C under setting [4] was 102 % of control; the T/C (endpoint: mean survival time, dose: 400.0 mg/kg/injection, schedule: Q01DX009 (ip), vehicle: saline with Tween-80) is 90 % of control; the T/C under setting [5] was 91 % of control.

In the case of `BrC1=CC2C3C=CC(c4ccccc43)C12` (stereo not drawn), the T/C is 95 % of control under setting [3], 95 % of control under setting [4] and 96 % of control under setting [5].

As for `CC([N+](=O)[O-])S(C)(=O)=O` (stereo not drawn), the T/C under setting [6] was 97 % of control; the T/C under setting [7] was 101 % of control; the T/C (endpoint: mean survival time, dose: 400.0 mg/kg/injection, schedule: Q01DX001 (ip), vehicle: saline with Tween-80) is 101 % of control.

The record behind these values is PubChem BioAssay AID256 (DTP/NCI, 2004).
